Source: the supplement of paper PMC3974653
Structures can show the parent of a compound that is named as a salt.

System: MTT (mouse pheochromocytoma)
Assay: IC50 of cell viability (ATP content)
Settings: (24 or 48 h)
In short: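 CellTiter-Glo ATP luminescence, read after 15 minutes, was used to assess MTT mouse pheochromocytoma cells treated for 24 or 48 hrs with library compounds (final 0.5 nM to 46 µM, 8 concentrations). The cells had been plated at 5 µl of 200,000 cells/ml per well in white 1536-well plates in DMEM with 5% FBS and 1% horse serum and cultured overnight at 37°C, 5% CO2. Normalisation set positive-control wells to 100% and DMSO wells to 0%. The IC50 was then determined by four-parameter logistic fitting.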

Compound	IC50 of cell viability [µM]
COc1ccc(C(c2ccc(OC)cc2)C(Cl)(Cl)Cl)cc1 [Methoxychlor]	> 46
C=CCN=C=S [Allyl isothiocyanate]	> 46
COc1cccc(C(=O)CCN[C@@H](C)[C@H](O)c2ccccc2)c1 [Oxyphedrine]	> 46
Cc1ccc(-n2nc(C(C)(C)C)cc2NC(=O)Nc2ccc(OCCN3CCOCC3)c3ccccc23)cc1 [DORAMAPIMOD]	> 46
CN(C)CCc1c[nH]c2ccc(C[S+](=O)([O-])N3CCCC3)cc12 [ALMOTRIPTAN]	> 46
CC(C)CC1C(=O)N2CCCC2C2(O)OC(NC(=O)C3CC4c5cccc6[nH]cc(c56)CC4N(C)C3)(C(C)C)C(=O)N12 (stereo unspecified) [Dihydroergocriptine]	> 46
CC(=O)OO [PERACETIC ACID]	> 46
O.O.[Na+].[Na+].[O]=[Cr](=[O])([O-])[O][Cr](=[O])(=[O])[O-] [Sodium Dichromate Dihydrate]	> 46
C[C@@H](N)[C@@H](O)c1ccc(O)c(O)c1 [(-)3,4-DIHYDROXYNOREPHEDRINE]	> 46
C=CCC1(O)CCC2C3CCC4=CC(=O)CCC4=C3C=CC21C (stereo unspecified) [Altrenogest]	> 46
O=C1c2ccccc2C(=O)c2c1ccc(O)c2O [ALIZARIN]	> 46
CNC1(c2ccccc2Cl)CCCCC1=O (stereo in doubt) [(R)-(+)-Ketamine]	> 46
C=CCN1C[C@H](C)N([C@H](c2ccc(C(=O)N(CC)CC)cc2)c2cccc(OC)c2)C[C@H]1C [SNC 80]	> 46
CCCCNC(=N)NC(=N)N [BUFORMIN HYDROCHLORIDE]	> 46
C[C@H]1C2Cc3ccc(O)cc3[C@]1(C)CCN2CC1CC1 (single isomer, unassigned; (+)) [(+)-Cyclazocine]	> 46
COc1ccc([C@@H]2Sc3ccccc3N(CCN(C)C)C(=O)[C@@H]2OC(C)=O)cc1 [DILTIAZEM]	> 46

Compound	IC50 of cell viability [µM]
Oc1ccnc(S)n1 [2-THIOURACIL]	> 46
CN(C)CCCOc1nn(Cc2ccccc2)c2ccccc12 [Benzydamine hydrochloride]	> 46
C[C@@H]1O[C@@H](O[C@H]2C[C@@H](O)[C@@]3(CO)[C@H]4[C@H](O)C[C@]5(C)[C@H](CC[C@]5(O)[C@H]4CC[C@@]3(O)C2)\C6=C\C(=O)OC6)[C@@H](O)[C@H](O)[C@H]1O [ouabain]	> 46
OCC1O[C@H](O[C@H]2C(O)C(O)C(O)O[C@@H]2CO)C(O)C(O)C1O (stereo partly specified) [CELLOBIOSE (D[+])]	> 46
O=C(c1cc2ccccc2o1)N1CCN(Cc2ccccc2)CC1 [Befuralina]	> 46
COc1cc(OC)c(C(=O)CCCN2CCCC2)c(OC)c1 [Buflomedil hydrochloride]	> 46
O.O.O.O.[Na+].[O-]c1ccccc1-c1ccccc1 [2-Phenylphenol sodium salt tetrahydrate technical]	> 46
C=C[C@@H]1CN2CC[C@H]1C[C@H]2[C@H](O)c1ccnc2ccccc12 [cinchonine]	> 46
CC(=O)OC1=CC=C(C=C1)C(=C2/CCCCC2)\C3=CC=C(OC(C)=O)C=C3 [CYCLOFENIL]	> 46
CC(=O)NC\1=N\C(=O)N(\C=C1)C2COC(COC(=O)C3=CC=CC=C3)O2 (stereo unspecified)	> 46
CN1C[C@@H]2C[C@H]1CN2c1cc2c(cc1F)c(=O)c(C(=O)O)cn2C1CC1 [Danofloxacin mesylate]	> 46
CCC(C)CCCCC(=O)NC(CCN)C(=O)NC(C(=O)NC(CCN)C(=O)NC1CCNC(=O)C(C(C)O)NC(=O)C(CCN)NC(=O)C(CCN)NC(=O)C(CC(C)C)NC(=O)C(Cc2ccccc2)NC(=O)C(CCN)NC1=O)C(C)O.O=[S+]([O-])(O)O (stereo unspecified) [POLYMYXIN B SULFATE]	> 46
Cl.NCC(=O)CCC(=O)O [AMINOLEVULINIC ACID HYDROCHLORIDE]	> 46
CCC(C(N)=O)N1CCCC1=O (stereo unspecified) [Etiracetam]	> 46
N[S+](=O)([O-])c1cc(Cl)c(Cl)c([S+](N)(=O)[O-])c1 [Dichlorphenamide]	> 46

Now from value to compound:

IC50 of cell viability [µM]	Compound
> 46	Cc1oc(=O)oc1CN1CCN(c2cc3c(cc2F)c(=O)c(C(=O)O)c2n3C(C)S2)CC1 (stereo unspecified) [Prulifloxacin]
> 46	Nc1ccn([C@@H]2CS[C@H](CO)O2)c(=O)n1 [lamivudine]
> 46	Cc1cccc(C)c1OCC(C)N.Cl (stereo unspecified) [Mexiletene hydrochloride]
> 46	CNC[C@@H]1CC[C@@H](N)[C@@H](O[C@H]2[C@H](O)[C@@H](O[C@H]3OC[C@](C)(O)[C@H](NC)[C@H]3O)[C@H](N)C[C@@H]2N)O1 [Micronomicin sulfate]
> 46	CC(C)(C)NC(=O)[C@@H]1C[C@@H]2CCCC[C@@H]2CN1C[C@@H](O)[C@H](Cc1ccccc1)NC(=O)[C@H](CC(N)=O)NC(=O)c1ccc2ccccc2n1 [Saquinavir Mesylate]
> 46	OC1C(O)C(O)C(O)C(O)C1O (stereo unspecified) [INOSITOL]
> 46	C[C@H]1COc2c(C3(N)CC3)c(F)cc3c(=O)c(C(=O)O)cn1c23 [PAZUFLOXACIN]
> 46	O=C(CCNNC(=O)c1ccncc1)NCc1ccccc1 [Nialamide]
> 46	CC1(C(=O)O)CCC2(C)CCC3(C)C(=CC(=O)[C@@H]4C5(C)CC[C@H](O[C@H]6O[C@H](C(=O)O)C(O)C(O)[C@H]6O[C@@H]6O[C@H](C(=O)O)C(O)C(O)C6O)C(C)(C)[C@@H]5CCC43C)[C@@H]2C1 (stereo partly specified) [GLYCYRRHIZIC ACID, MONOSODIUM SALT]
> 46	CC(C)(C)NC(=O)[C@@H]1CC[C@@H]2[C@@H]3CC[C@@H]4NC(=O)\C=C/[C@@]4(C)[C@H]3CC[C@@]12C [Finasteride]
> 46	O=C1NC(=O)C2C3C=CC(C3)C12 (stereo unspecified) [NOREXIMIDUM]
> 46	CC(C)NC[C@H](O)c1cc(O)cc(O)c1 [Metaproterenol sulfate, orciprenaline sulfate]
> 46	CC(C)c1nc(N(C)[S+](C)(=O)[O-])nc(-c2ccc(F)cc2)c1/C=C/C(O)CC(O)CC(=O)O (stereo unspecified) [ROSUVASTATIN]
> 46	CNC1CC(N)[C@H](O)[C@@H](O[C@@H]2OC(CO)C3OC4(OC(C(N)CO)C(O)C(O)C4O)O[C@@H]3[C@H]2O)C1O (stereo partly specified) [HYGROMYCIN B]
> 46	C=Cc1ccc(C=C)cc1.C=Cc1ccccc1.CC(C)N(Cc1ccccc1)C(C)C [Diisopropylaminomethyl-polystyrene]
> 46	COC(=O)\C1=C(/C)N\C(=C(/C1C2=C(Cl)C(=CC=C2)Cl)C(=O)OC(C)C)COC(N)=O (stereo unspecified) [LEMILDIPINE]
> 46	NC(N)=Nc1nc(CSCC/C(N)=N/[S+](N)(=O)[O-])cs1 [FAMOTIDINE]
> 46	Cl.O=C1NCC2(CCN(CCc3ccccc3)CC2)O1 [FENSPIRIDE HYDROCHLORIDE]
> 46	CN(C)c1ccc(/N=N/S(=O)(=O)[O-])cc1 [Fenaminosulf]
> 46	O=C(NCCN1CCOCC1)c1ccc(Cl)cc1 [Moclobemide]

IC50 of cell viability [µM]	Compound
> 46	CCC(=O)NCCC1CCc2ccc3c(c21)CCO3 (stereo unspecified) [RAMELTEON]
> 46	Cc1cc(OI)c(C(C)C)cc1-c1cc(C(C)C)c(OI)cc1C [THYMOL IODIDE]
> 46	NC(=O)NO [HYDROXYUREA]
> 46	OCC(O)CO [GLYCERIN]
> 46	C[C@@H](C(=O)O)c1ccc(C2CCCCC2)c2ccccc12 [Quadrisol]
> 46	CN(C)[C@H]\1[C@@H]2[C@@H](O)[C@@H]\3C(=C)C4=C(Cl)C=CC(=C4C(=O)C3=C(\O)[C@@]2(O)C(=O)\C(=C1O)C(N)=O)O.OC(=O)C5=C(O)C=CC(=C5)[S+](O)([O-])=O [Meclocycline sulfosalicylate]
> 46	CCN1CCC[C@H](OC(=O)C(c2ccccc2)c2ccccc2)C1 [Piperidolate hydrochloride]
> 46	Cn1c(NCCN(CCO)CCCc2ccc([N+](=O)[O-])cc2)cc(=O)n(C)c1=O [Nifekalant]
> 46	CN(C)CCC=C1C2=C(C=CC=C2)\C=C/C3=C1C=CC=C3 [Flexeril]
> 46	CC(C)(C)CC(C)(C)c1ccc(O)c(-n2nc3ccccc3n2)c1 [OCTRIZOLUM]
> 46	FC1=CC=C(C=C1)C(=O)CCCN2CC\C(=C/C2)N3C(=O)NC4=C3C=CC=C4 [Droperidol]
> 46	CCc1cccc2c3c([nH]c12)[C@](CC)(CC(=O)O)OCC3 [Etodolac]
> 46	Clc1ccc(CO[C@@H](Cn2ccnc2)c2ccc(Cl)cc2Cl)c(Cl)c1 [Miconazole]
> 46	CCCN(CCC)C(=O)[C@@H](CCC(=O)O)NC(=O)c1ccccc1 [Proglumide]
> 46	Clc1ccc(C(c2ccccc2Cl)C(Cl)Cl)cc1 (stereo unspecified) [Mitotane]
> 46	CN[S+](=O)([O-])CCc1ccc2[nH]cc(C3CCN(C)CC3)c2c1 [Naratriptan Hydrochloride]
> 46	C[C@H](CN1CCCC1)C(=O)c1ccc(C(F)(F)F)cc1 [LANPERISONE HYDROCHLORIDE]
> 46	CCN(CC)C(=O)[C@@]1(c2ccccc2)C[C@@H]1CN [MILNACIPRAN]
> 46	CC(=O)Nc1ccc([S+](=O)([O-])Nc2ccc([N+](=O)[O-])cc2)cc1 [SULFANITRAN]
> 46	O=C1c2ccccc2[S+](=O)([O-])N1CCCCN1CCN(c2ncccn2)CC1 [Ipsapirone]
